Results reported in US12312355B2, “1H-[1, 2, 3]triazolo[4, 5-h] quinazoline compounds acting as protein kinase inhibitors” (CHENGDU CYNOGEN BIO-PHARMACEUTICAL TECHNOLOGY CO., LTD., priority 2019, dated 2025).
Where a name gives a salt, the structure may show the parent alone.

What was measured:
Format in all cases: biochemical
Settings in all cases: class symbols
CDK6/cyclin D3 = CDK6/cyclin D3 (Homo sapiens (Human), UniProt Q00534); test: Kinase activity assay, Caliper Mobility Shift Assay, CDK6/cyclin D3
CDK4/cyclin D3 = CDK4/cyclin D3 (Homo sapiens (Human), UniProt P11802); test: Kinase activity assay, Caliper Mobility Shift Assay, CDK4/cyclin D3
Description: The inhibitory effect of the compound on the kinase CDK4/cyclin D3 was tested by the Caliper Mobility Shift Assay method. The final test concentration of the compound was 10 concentrations, which started from […] and were obtained by three-fold dilution. 5 μL of 5-fold final concentration compound and 10 μL of CDK4/Cyclin D3 kinase solution with final concentration of 10 nM were added to the 384-well reaction plate respectively, and pre incubated at room temperature for 10 minutes (the negative control well contained 10 μL kinase buffer and 5 μL 5% DMSO; the positive control well contained 10 μL kinase solution and 5 μL 5% DMSO). The mixture of 10 μL ATP with a final concentration of 250 μM and the corresponding substrate peptide was added to initiate the reaction, and the mixture was reacted at room temperature for 150 minutes. 30 μL of stop test solution containing EDTA was added to stop the kinase reaction. Conversion rate was read by Caliper EZ Reader. Conversion inhibition rate %=(average conversion rate of positive control %−sample conversion rate %)/(average conversion rate of positive control %−average conversion rate of negative control %). Wherein: the negative control well represents conversion rate reading of wells without enzyme activity; the positive control well represents conversion rate reading of wells without compound inhibition. The log value of concentration was taken as the X-axis and the percentage inhibition rate was the Y-axis. […] Calculation formula: Y=Bottom+(Top−Bottom)/(1+10^((Log IC50−X)*HillSlope)).

CDK2/cyclin A2 = CDK2/cyclin A2 (Homo sapiens (Human), UniProt P24941); test: Kinase activity assay, Caliper Mobility Shift Assay, CDK2/cyclin A2
Description: The inhibitory effect of the compound on the kinase CDK4/cyclin D3 was tested by the Caliper Mobility Shift Assay method. The final test concentration of the compound was 10 concentrations, which started from […] and were obtained by three-fold dilution. 5 μL of 5-fold final concentration compound and 10 μL of CDK4/Cyclin D3 kinase solution with final concentration of 10 nM were added to the 384-well reaction plate respectively, and pre incubated at room temperature for 10 minutes (the negative control well contained 10 μL kinase buffer and 5 μL 5% DMSO; the positive control well contained 10 μL kinase solution and 5 μL 5% DMSO). The mixture of 10 μL ATP with a final concentration of 250 μM and the corresponding substrate peptide was added to initiate the reaction, and the mixture was reacted at room temperature for 150 minutes. 30 μL of stop test solution containing EDTA was added to stop the kinase reaction. Conversion rate was read by Caliper EZ Reader. Conversion inhibition rate %=(average conversion rate of positive control %−sample conversion rate %)/(average conversion rate of positive control %−average conversion rate of negative control %). Wherein: the negative control well represents conversion rate reading of wells without enzyme activity; the positive control well represents conversion rate reading of wells without compound inhibition. The log value of concentration was taken as the X-axis and the percentage inhibition rate was the Y-axis. The dose-effect curve was fitted by log(inhibitor) vs. response—Variable slope of the analysis software GraphPad Prism 5, and the IC50 value of each compound on the enzyme activity was obtained. Calculation formula: Y=Bottom+(Top−Bottom)/(1+10^((Log IC50−X)*HillSlope)).
The IC50 values of the compounds of the present disclosure for CDK6/cyclin D3 and CDK2/cyclin A2 were tested in a similar manner.

CDK4/cyclin D3, sequence (P11802 whole entry, species assumed): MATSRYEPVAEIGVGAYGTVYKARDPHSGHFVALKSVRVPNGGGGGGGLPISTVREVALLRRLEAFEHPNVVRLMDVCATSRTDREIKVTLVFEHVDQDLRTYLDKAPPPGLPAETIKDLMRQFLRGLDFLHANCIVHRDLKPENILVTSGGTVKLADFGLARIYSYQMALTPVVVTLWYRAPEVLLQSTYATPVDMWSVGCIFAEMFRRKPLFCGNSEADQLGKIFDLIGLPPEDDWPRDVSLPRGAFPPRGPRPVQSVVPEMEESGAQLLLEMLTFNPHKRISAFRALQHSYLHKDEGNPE
CDK4/cyclin D3, sequence (P30281 whole entry partner, species assumed): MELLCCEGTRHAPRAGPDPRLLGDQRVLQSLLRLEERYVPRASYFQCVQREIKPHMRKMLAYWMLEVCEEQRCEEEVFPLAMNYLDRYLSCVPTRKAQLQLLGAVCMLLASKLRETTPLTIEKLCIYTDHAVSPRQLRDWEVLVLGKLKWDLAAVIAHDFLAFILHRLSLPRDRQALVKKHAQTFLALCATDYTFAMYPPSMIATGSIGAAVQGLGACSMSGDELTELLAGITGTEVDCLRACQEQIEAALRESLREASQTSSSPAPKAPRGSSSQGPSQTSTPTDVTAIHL
CDK6/cyclin D3, sequence (Q00534 whole entry, species assumed): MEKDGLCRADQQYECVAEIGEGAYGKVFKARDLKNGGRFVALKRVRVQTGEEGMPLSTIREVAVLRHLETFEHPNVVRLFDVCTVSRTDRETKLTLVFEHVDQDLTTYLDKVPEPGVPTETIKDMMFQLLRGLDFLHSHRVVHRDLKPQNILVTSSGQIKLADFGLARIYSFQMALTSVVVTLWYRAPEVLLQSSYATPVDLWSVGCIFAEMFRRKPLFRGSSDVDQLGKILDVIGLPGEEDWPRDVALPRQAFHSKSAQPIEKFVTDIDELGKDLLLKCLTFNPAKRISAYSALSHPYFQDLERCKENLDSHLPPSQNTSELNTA
CDK6/cyclin D3, sequence (P30281 whole entry partner, species assumed): as the sequence (P30281 whole entry partner, species assumed) above

SMILES | IC50 (CDK6/cyclin D3) [nM] | IC50 (CDK4/cyclin D3) [nM] | IC50 (CDK2/cyclin A2) [nM]
Cc1cc(Nc2ncc3ccc4nnn(C(C)C)c4c3n2)ncc1N1CCNCC1 [Compound I-2, 1-Isopropyl-N-(4-methyl-5-(piperazin-1-yl)pyridin-2-yl)-1H-[1,2,3]triazolo[4,5-h]quinazolin-8-amine hydrochloride] | 50 to 100 | 10 to 50 | 
CC(C)n1nnc2ccc3cnc(Nc4ccc(N5CCOCC5)cn4)nc3c21 [Compound I-6, 1-Isopropyl-N-(5-morpholinopyridin-2-yl)-1H-[1,2,3]triazolo[4,5-h]quinazo-lin-8-amine hydrochloride] | 10 to 50 | < 10 | 
CC(C)n1nnc2ccc3cnc(Nc4ccc(N5CCN(C6CC6)CC5)cn4)nc3c21 [Compound I-8, N-(5-(4-Cyclopropylpiperazin-1-yl)py-ridin-2-yl)-1-isopropyl-1H-[1,2,3]tri-azolo[4,5-h]quinazolin-8-amine hydrochloride] | 10 to 50 | < 10 | 
CCN1CCN(Cc2ccc(Nc3ncc4ccc5nnn(C(C)C)c5c4n3)nc2)CC1 [Compound I-10, N-(5-((4-Ethylpiperazin-1-yl)methyl)pyridin-2-yl)-1-isopropyl-1H-[1,2,3]tri-azolo[4,5-h]quinazolin-8-amine hydrochloride] | 10 to 50 | < 10 | 
CC(C)n1nnc2ccc3cnc(Nc4ccc(N5CCNCC5)nn4)nc3c21 [Compound I-13, 1-Isopropyl-N-(6-(piperazin-1-yl)pyri-dazin-3-yl)-1H-[1,2,3]triazolo[4,5-h]quin-azolin-8-amine hydrochloride] | 10 to 50 | < 10 | 
CC(C)n1nnc2ccc3cnc(Nc4ccc(N5CCNCC5=O)cn4)nc3c21 [Compound I-14, 1-(6-((1-Isopropyl-1H-[1,2,3]triazolo[4,5-h]quinazolin-8-yl)amino)pyridin-3-yl)piperazin-2-one hydrochloride] | 10 to 50 | < 10 | 
CC(C)n1nnc2ccc3cnc(Nc4ccc(N5CCS(=O)(=O)CC5)cn4)nc3c21 [Compound I-15, 4-(6-((1-Isopropyl-1H-[1,2,3]triazolo[4,5-h]quinazolin-8-yl)amino)pyridin-3-yl)thiomorpholine 1,1-dioxide hydrochloride] | 10 to 50 | < 10 | 
CC(C)n1nnc2ccc3cnc(Nc4ccc(N5CC6(CCNCC6)C5)cn4)nc3c21 [Compound I-17, N-(5-(2,7-Diazaspiro[3.5]nonan-2-yl)pyridin-2-yl)-1-isopropyl-1H-[1,2,3]tri-azolo[4,5-h]quinazolin-8-amine hydrochloride] | 10 to 50 | < 10 | 
CC(C)Cn1nnc2ccc3cnc(Nc4ccc(N5CCNCC5)cn4)nc3c21 [Compound I-18, 1-Isobutyl-N-(5-(piperazin-1-yl)pyridin-2-yl)-1H-[1,2,3]triazolo[4,5-h]quina-zolin-8-amine] | 10 to 50 | < 10 | 
CC(C)Cn1nnc2ccc3cnc(Nc4ccc(N5CCN(C)CC5)cn4)nc3c21 [Compound I-19, 1-Isobutyl-N-(5-(4-methylpiperazin-1-yl)pyridin-2-yl)-1H-[1,2,3]triazolo[4,5-h]quinazolin-8-amine hydrochloride] | 10 to 50 | < 10 | 
CCN1CCN(c2ccc(Nc3ncc4ccc5nnn(CC(C)C)c5c4n3)nc2)CC1 [Compound I-20, N-(5-(4-Ethylpiperazin-1-yl)pyridin-2-yl)-1-isobutyl-1H-[1,2,3]triazolo[4,5-h] quinazolin-8-amine] | 10 to 50 | < 10 | 
CC(C)Cn1nnc2ccc3cnc(Nc4ccc(N5CCOCC5)cn4)nc3c21 [Compound I-21, 1-Isobutyl-N-(5-morpholinopyridin-2-yl)-1H-[1,2,3]triazolo[4,5-h]quinazolin-8-amine] | 50 to 100 | 10 to 50 | 
CN1CCN(c2ccc(Nc3ncc4ccc5nnn(C6CCCC6)c5c4n3)nc2)CC1 [Compound I-23, 1-Cyclopentyl-N-(5-(4-methylpiperazin-1-yl)pyridin-2-yl)-1H-[1,2,3]triazolo[4,5-h] quinazolin-8-amine] | 10 to 50 | < 10 | 
CC(C)n1nnc2ccc3cnc(Nc4ccc(N5CCNCC5)cc4)nc3c21 [Compound I-24, 1-isopropyl-N-(4-(piperazin-1-yl)phenyl)-1H-[1,2,3]triazolo[4,5-h]quinazolin-8-amine hydrochloride] | < 10 | < 10 | < 10
CCN1CCN(c2ccc(Nc3ncc4ccc5nnn(C(C)C)c5c4n3)cc2)CC1 [Compound I-25, N-(4-(4-Ethylpiperazin-1-yl)phenyl)-1-iso-propyl-1H-[1,2,3]triazolo[4,5-h]quin-azolin-8-amine] | < 10 | < 10 | < 10

Further lines, results first:

IC50 (CDK6/cyclin D3) [nM] | IC50 (CDK4/cyclin D3) [nM] | IC50 (CDK2/cyclin A2) [nM] | SMILES
< 10 | < 10 |  | CC(C)n1nnc2ccc3cnc(Nc4ccc(N5CCNCC5)cn4)nc3c21 [Compound I-1, 1-Isopropyl-N-(5-(piperazin-1-yl)pyridin-2-yl)-1H-[1,2,3]triazolo[4,5-h]quinazolin-8-amine hydrochloride]
< 10 | < 10 |  | Cc1nc(Nc2ncc3ccc4nnn(C(C)C)c4c3n2)ccc1N1CCNCC1 [Compound I-3, 1-Isopropyl-N-(6-methyl-5-(piperazin-1-yl)pyridin-2-yl)-1H-[1,2,3]triazolo[4,5-h]quinazolin-8-amine hydrochloride]
< 10 | < 10 |  | CC(C)n1nnc2ccc3cnc(Nc4ccc(N5CCN(C)CC5)cn4)nc3c21 [Compound I-4, 1-Isopropyl-N-(5-(4-methylpiperazin-1-yl)pyridin-2-yl)-1H-[1,2,3]triazolo[4,5-h]quinazolin-8-amine hydrochloride]
< 10 | < 10 |  | CCN1CCN(c2ccc(Nc3ncc4ccc5nnn(C(C)C)c5c4n3)nc2)CC1 [Compound I-5, N-(5-(4-Ethylpiperazin-1-yl)pyridin-2-yl)-1-isopropyl-1H-[1,2,3]triazolo[4,5-h]quinazolin-8-amine hydrochloride]
< 10 | < 10 |  | CC(C)N1CCN(c2ccc(Nc3ncc4ccc5nnn(C(C)C)c5c4n3)nc2)CC1 [Compound I-7, 1-Isopropyl-N-(5-(4-isopropylpiperazin-1-yl)pyridin-2-yl)-1H-[1,2,3]triazolo [4,5-h]quinazolin-8-amine hydrochloride]
< 10 | < 10 |  | CC(C)CN1CCN(c2ccc(Nc3ncc4ccc5nnn(C(C)C)c5c4n3)nc2)CC1 [Compound I-9, N-(5-(4-Isobutylpiperazin-1-yl)pyridin-2-yl)-1-isopropyl-1H-[1,2,3]triazolo [4,5-h]quinazolin-8-amine hydrochloride]
< 10 | < 10 |  | CC(C)n1nnc2ccc3cnc(Nc4ccc(N5CCC(N(C)C)CC5)cn4)nc3c21 [Compound I-11, N-(5-(4-(Dimethylamino)piperidin-1-yl)pyridin-2-yl)-1-isopropyl-1H-[1,2,3] triazolo[4,5-h]quinazolin-8-amine hydrochloride]
< 10 | < 10 |  | CC(C)n1nnc2ccc3cnc(Nc4ccc(C5CCNCC5)cn4)nc3c21 [Compound I-12, 1-Isopropyl-N-(5-(piperidin-4-yl)pyri-din-2-yl)-1H-[1,2,3]triazolo[4,5-h]quin-azolin-8-amine hydrochloride]
< 10 | < 10 |  | COc1ccc2cc(Nc3ncc4ccc5nnn(C(C)C)c5c4n3)ccc2n1 [Compound I-16, 1-Isopropyl-N-(2-methoxyquinolin-6-yl)-1H-[1,2,3]triazolo[4,5-h]quinazolin-8-amine hydrochloride]
< 10 | < 10 |  | c1cc(Nc2ncc3ccc4nnn(C5CCCC5)c4c3n2)ncc1N1CCNCC1 [Compound I-22, 1-Cyclopentyl-N-(5-(piperazin-1-yl)pyridin-2-yl)-1H-[1,2,3]triazolo[4,5-h]quinazolin-8-amine hydrochloride]
